The values that follow come from patent US20250152591A1, “TREATMENT OF HEMATOLOGICAL MALIGNANCIES WITH MENIN INHIBITORS AND P-GLYCOPROTEIN INHIBITORS” (Kura Oncology, Inc., priority 2022, published 2025).

Usually Papp A→B stands for the apparent permeability from the apical to the basolateral side of a cell layer. For orientation: Papp B→A means the apparent permeability from the basolateral to the apical side of a cell layer. Usually IC50 stands for the concentration at which inhibition is half-maximal. Usually Papp stands for the rate of passage across a membrane or cell layer, normalised by area and donor concentration.

Like-named read-outs stand apart in the source and are kept apart here.

For data set [1], the target named is T1, P-gp (Homo sapiens, UniProt P08183). Briefly: in vitro. The conditions noted are these: MDCK-MDR1, pH 7.4. As to the method:
MDCK epithelial cells stably transfected with the human MDR1 gene (the gene encoding for the efflux protein P-gp) were seeded on a Multiscreen™ plate (Millipore, MA, USA) and formed a confluent monolayer over 4 days prior to the experiment. To verify the MDR1-MDCK cell monolayers were properly formed, aliquots of the cell buffers were analyzed by fluorescence to determine the transport of the impermeable dye Lucifer Yellow. Any deviations from control values are reported.
MDR1-MDCK cells were incubated with these buffers for 2 h, and the receiver side buffer was removed for analysis by LC-MS/MS.
The rate of passage of the test compounds through this cell monolayer barrier from apical to basolateral (A→B) in this bi-directional transport assay was used to determine the apparent permeability coefficient (Papp). Receiver, donor, and dosing solution concentrations were quantified using a calibration curve prepared in transport buffer solution (pH 7.4). Papp is calculated as
where dQ/dt is rate of permeation, C0 is initial concentration of test agent, and A is the area of monolayer (0.11 cm^2). The basolateral to apical (B→A) to apical to basolateral (A→B) apparent permeability coefficient ratio
When RE>2 for a tested compound, the tested compound is a potential substrate for P-gp.
Rantinidine, talinolol, warfarin, and loperamide (±2 μM elacridar) were tested as reference compounds and each was tested at a concentration of 10 μM.

Data set [2] has as its target T1, P-gp. Briefly: P-gp substrate assessment using MDR1-MDCK monolayers (Example 1, +/- valspodar). In kind it is in vitro ADME. The arrangement: expressed in transfected cells; host or cells: MDR1-MDCK cells. The conditions noted are these: 12-well plates, QC of MDR1-MDCK cell batch. As to the method: MDR1-MDCK cell monolayers were grown to confluence on collagen-coated, microporous membranes in 12-well assay plates. Details of the plates and their certification are shown below. The permeability assay buffer was Hanks' balanced salt solution (HBSS) containing 10 mM HEPES and 15 mM glucose at a pH of 7.4. The buffer in the receiver chamber also contained 1% bovine serum albumin. The dosing solution concentration was 5 μM of test article in the assay buffer+/−1 μM valspodar. Cells were first pre-incubated for 30 min with HBSS containing+/−1 μM valspodar. Cell monolayers were dosed on the apical side (A-to-B) or basolateral side (B-to-A) and incubated at 37° C. with 5% CO2 in a humidified incubator. Samples were taken from the donor and receiver chambers at 120 min. Each determination was performed in duplicate. The flux of lucifer yellow was also measured post-experimentally for each monolayer to ensure no damage was inflicted to the cell monolayers during the flux period. All samples were assayed by LC-MS/MS using electrospray ionization. Liquid chromatography conditions are summarized as follows: Column: Thermo BDS Hypersil C18 30×2.1 mm, […], with guard column; M.P. Buffer: 25 mM ammonium formate buffer, pH 3.5; Aqueous Reservoir (A): 90% water, 10% buffer; Organic Reservoir (B): 90% acetonitrile, 10% buffer; Flow Rate: 350 μL/minute; Total run time: 3.5 min; Autosampler: 10 μL injection volume; Autosampler wash: water/methanol/2-propanol: 1/1/1; with 0.2% formic acid.
The apparent permeability (Papp) and percent recovery were calculated as follows: […]
where, • dCr/dt is the slope of the cumulative concentration in the receiver compartment versus time in μM s^−1; • Vr is the volume of the receiver compartment in cm^3; • Vd is the volume of the donor compartment in cm^3; • A is the area of the insert (1.13 cm^2 for 12-well); • CA is the average of the nominal dosing concentration and the measured 120 minute donor concentration in μM; • CN is the nominal concentration of the dosing solution in μM; • Cr^final is the cumulative receiver concentration in μM at the end of the incubation period; • Cd^final is the concentration of the donor in μM at the end of the incubation period.
Efflux ratio (ER) is defined as Papp (B-to-A)/Papp (A-to-B).
• ER≥2.0 without valspodar, and reduced by ≥50% with valspodar: Positive • ER≥2.0 without valspodar, and reduced by <50% with valspodar: Negative • ER<2.0 without and with valspodar: Negative

Another data set concerns MV4;11-Control cell line. The experiment in a line: CellTiter-Glo cell viability assay, MV4;11-Control. It counts as cell-based. The arrangement: unit of the concentration uncertain. The conditions noted are these: second set of experiments. As to the method: (§1) The influence of efflux pumps on the antitumor activity of the test compounds at steady state (more clinically relevant) were evaluated using P-gp-transfected AML cells (MV4;11 cells) in 6-day viability assays.
(§2) A P-gp-expressing KMT2A(MLL)-rearranged cell line model was developed by lentiviral transduction of the MV4;11 parental cell line and then selection for either Luciferase ORF (MV4;11-Control) or P-gp ORF (MV4;11-PGP).
(§3) […] Cell viability was measured by CellTiter-Glo® Luminescent Cell Viability Assay (CTG assay, Promega Corp.) and % Viability was quantified by normalizing to the luminescence values of DMSO-only treated cells. The dose-response curves and IC50's were calculated using GraphPad Prism 9.4.1.
(§4) The measured luminescence in the live cells of the MV4;11-Control and MV4;11-PGP cells that were treated with Compound I only (+DMSO), Compound I+posaconazole […], and valspodar (1 mM) are shown in FIGS. 5A and 5B.
(§5) In a second set of experiments, MV4;11-Control and MV4;11-PGP cell lines were treated as described above with five menin inhibitors, including Compound I, SNDX-5613, Compound A, Compound B, and Compound C, at concentrations ranging from 0 to 1000 nM. All tested compounds dropped in potency due to the P-gp expression as shown in FIGS. 6A-6J and in Tables 5 and 6 (indicated by increased IC50 values between “MV4;11-Control (Compound+DMSO)” and “MV4;11-PGP (Compound+DMSO)” entries).
A general note: In ATP-based viability assays light output follows the ATP content of the culture.

Another data set deals with MV4;11-PGP cell line. The experiment in a line: CellTiter-Glo cell viability assay, MV4;11-PGP. The conditions noted are these: second set of experiments. Also on record: unit of the concentration uncertain. It counts as cell-based. As to the method:
as §1, §2, §3, §4, §5

The mark [3] stands for this setting: 144 h, 0 to 1000 nM, Table 5, read-out: IC50 MV4;11-Control (Compound + DMSO).
[4] abbreviates: 144 h, 0 to 1000 nM, Table 6, read-out: IC50 MV4;11-Control (Compound + DMSO).
[5] abbreviates: posaconazole (1.5 (unit uncertain)), Table 5, read-out: IC50 MV4;11-Control (Compound + posaconazole).
Where [6] appears, read: valspodar (1 (unit uncertain)), Table 6, read-out: IC50 MV4;11-Control (Compound + valspodar).
Setting [7] is: 144 h, 0 to 1000 nM, Table 5, read-out: IC50 MV4;11-PGP (Compound + DMSO).
The mark [8] stands for this setting: 144 h, 0 to 1000 nM, Table 6, read-out: IC50 MV4;11-PGP (Compound + DMSO).
[9] abbreviates: posaconazole (1.5 (unit uncertain)), Table 5, read-out: IC50 MV4;11-PGP (Compound + posaconazole).
Setting [10] is: valspodar (1 (unit uncertain)), Table 6, read-out: IC50 MV4;11-PGP (Compound + valspodar).

T1 sequence (P08183 whole entry): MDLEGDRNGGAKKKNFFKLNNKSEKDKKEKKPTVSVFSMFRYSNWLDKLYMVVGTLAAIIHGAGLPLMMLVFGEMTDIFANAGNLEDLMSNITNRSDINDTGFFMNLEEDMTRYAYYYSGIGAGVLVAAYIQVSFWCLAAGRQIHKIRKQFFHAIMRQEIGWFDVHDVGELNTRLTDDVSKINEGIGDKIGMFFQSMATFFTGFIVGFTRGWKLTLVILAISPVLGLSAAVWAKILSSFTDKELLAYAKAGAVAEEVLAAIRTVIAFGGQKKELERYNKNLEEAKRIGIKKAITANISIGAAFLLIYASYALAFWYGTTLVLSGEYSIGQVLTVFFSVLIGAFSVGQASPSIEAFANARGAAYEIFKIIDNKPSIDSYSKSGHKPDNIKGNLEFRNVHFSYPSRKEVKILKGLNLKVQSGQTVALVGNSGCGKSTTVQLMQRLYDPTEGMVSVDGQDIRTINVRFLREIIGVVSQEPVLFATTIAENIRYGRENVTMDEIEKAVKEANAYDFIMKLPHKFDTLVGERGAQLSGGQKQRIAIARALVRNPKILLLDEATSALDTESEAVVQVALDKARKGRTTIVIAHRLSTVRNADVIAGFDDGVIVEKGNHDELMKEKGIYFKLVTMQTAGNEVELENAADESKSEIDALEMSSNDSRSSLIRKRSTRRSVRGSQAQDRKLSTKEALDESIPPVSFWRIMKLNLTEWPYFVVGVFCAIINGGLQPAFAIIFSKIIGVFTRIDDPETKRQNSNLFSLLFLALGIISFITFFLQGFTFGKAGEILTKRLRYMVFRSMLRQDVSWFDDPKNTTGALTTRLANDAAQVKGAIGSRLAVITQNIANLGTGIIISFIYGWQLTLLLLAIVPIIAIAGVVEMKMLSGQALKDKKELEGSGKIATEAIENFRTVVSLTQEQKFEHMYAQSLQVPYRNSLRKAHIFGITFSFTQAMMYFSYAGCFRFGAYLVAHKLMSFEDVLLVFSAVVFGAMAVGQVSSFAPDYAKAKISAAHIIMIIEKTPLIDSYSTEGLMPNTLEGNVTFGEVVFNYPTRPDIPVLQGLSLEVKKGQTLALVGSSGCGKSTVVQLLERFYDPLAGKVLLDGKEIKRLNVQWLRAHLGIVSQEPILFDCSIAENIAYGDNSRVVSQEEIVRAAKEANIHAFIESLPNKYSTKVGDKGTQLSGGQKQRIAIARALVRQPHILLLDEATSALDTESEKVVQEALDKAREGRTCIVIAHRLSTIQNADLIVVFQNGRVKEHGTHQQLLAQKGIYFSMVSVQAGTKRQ

In the case of `CNC(=C[N+](=O)[O-])NCCSCc1ccc(CN(C)C)o1` [Ranitidine], at P-gp [1], the Papp A→B at 2 h amounted to 0.0514 ×10⁻⁶ cm/s and the Papp B→A at 2 h turned out to be 4.35 ×10⁻⁶ cm/s.
Regarding `C[C@H]1O[C@@H](O[C@H]2[C@@H](O)C[C@H](O[C@H]3[C@@H](O)C[C@H](O[C@H]4CC[C@@]5(C)[C@H](CC[C@@H]6[C@@H]5C[C@@H](O)[C@]5(C)[C@@H](C7=CC(=O)OC7)CC[C@]65O)C4)O[C@@H]3C)O[C@@H]2C)C[C@H](O)[C@@H]1O` [Digoxin], on P-gp [2], the “B-to-A Papp (cell batch quality control)” value is reported as 17.6 10^−6 cm/s and the “efflux ratio (cell batch quality control)” value worked out at 243. In addition, the Papp A→B at P-gp [2] (dog, read-out: A-to-B Papp (cell batch quality control)) came out at 0.07 ×10⁻⁶ cm/s.
`CCN(C(=O)c1cc(F)ccc1Oc1nncnc1N1CCC2(C1)CN([C@H](CCCN(C)CCOC)C(C)C)C2)C(C)C` [Compound B]: the IC50 with MV4;11-Control cell line (setting [3]) is 3.32 nM; in the data set with MV4;11-Control cell line (setting [4]) it was 4.1 nM; in the data set on MV4;11-Control cell line (setting [5]), 2.51 nM; in the data set on MV4;11-Control cell line (setting [6]), 3 nM; in the data set on MV4;11-PGP cell line (setting [7]) it was 108 nM; in the data set on MV4;11-PGP cell line (setting [8]), 114 nM. In addition, the results for the IC50 in the data set on MV4;11-PGP cell line (setting [9]) and in the data set on MV4;11-PGP cell line (setting [10]) were 5.91 nM and 3.15 nM, respectively.
Consider `C=CC(=O)N[C@@H]1CCCN(Cc2ccnc(C(=O)Nc3ccc(-c4cc5c(N6CCOCC6)ncnc5[nH]4)cc3)c2)C1` [Compound C], for which the IC50 stood at 236 nM in the data set with MV4;11-Control cell line (setting [3]); 267 nM with MV4;11-Control cell line (setting [4]); 222 nM in the data set on MV4;11-Control cell line (setting [5]); 230 nM in the data set with MV4;11-Control cell line (setting [6]); 716 nM with MV4;11-PGP cell line (setting [7]); 764 nM in the data set on MV4;11-PGP cell line (setting [8]). In addition, the IC50 in the data set with MV4;11-PGP cell line (setting [9]) was 349 nM; in the data set on MV4;11-PGP cell line (setting [10]) it was 231 nM.
For the compound `CN(C)C(=O)C(CCN1CCC(O)(c2ccc(Cl)cc2)CC1)(c1ccccc1)c1ccccc1` [Loperamide], at P-gp [1], the Papp A→B at 2 h was 0.792 ×10⁻⁶ cm/s and the Papp B→A at 2 h is 61.2 ×10⁻⁶ cm/s.
Consider `CC(C)NCC(O)COc1cccc2ccccc12` (stereo not shown) [Propanolol], for which the Papp at P-gp [2] (dog, read-out: Papp (cell batch quality control)) stood at 15 ×10⁻⁶ cm/s.
On P-gp [1], `CC(=O)CC(c1ccccc1)c1c(O)c2ccccc2oc1=O` (stereo not shown) [Warfarin] had a Papp A→B at 2 h of 21.5 ×10⁻⁶ cm/s and a Papp B→A at 2 h of 32.3 ×10⁻⁶ cm/s.
As to `COc1cc(-c2ccc(CN[C@H]3C[C@@H](O)[C@@H](N(C)c4ncnc5sc(CC(F)(F)F)cc45)C3)cc2)nnc1OC` [Compound A], the IC50 was found to be 2.28 nM in the data set on MV4;11-Control cell line (setting [3]); 2.07 nM in the data set with MV4;11-Control cell line (setting [4]); 2.01 nM with MV4;11-Control cell line (setting [5]); 2.1 nM with MV4;11-Control cell line (setting [6]); 22 nM with MV4;11-PGP cell line (setting [7]); 21.3 nM in the data set on MV4;11-PGP cell line (setting [8]). For the same compound, the values for the IC50 in the data set on MV4;11-PGP cell line (setting [9]) and in the data set on MV4;11-PGP cell line (setting [10]) were 4.91 nM and 2.41 nM, respectively.
